Laboratory results reported in patent publication US8017557B2, “Benzodioxole derivatives as modulators of proteolytic activity in plants” (Endura S.p.A., priority 2002, dated 2011).
Like-named read-outs stand apart in the source and are kept apart here.

How the values were obtained:
[1] = tested on: carboxypeptidase activity in cotton sprouts; settings: for absorbance at 280 nm, Exp. n° 1, PBO Treated Cotton Sprouts / absorbance at 280 nm, Exp. n° 2, PBO Treated Cotton Sprouts / absorbance at 280 nm, Mean, PBO Treated Cotton Sprouts / Carboxypeptidase Activity (U), PBO Treated Cotton Sprouts: pH 6.5; for absorbance at 280 nm, Exp. n° 1, PBO Treated Cotton Sprouts / absorbance at 280 nm, Exp. n° 2, PBO Treated Cotton Sprouts / absorbance at 280 nm, Mean, PBO Treated Cotton Sprouts / % difference of carboxypeptidase activity, treated vs untreated / Δ U (carboxypeptidase activity, untreated vs PBO treated) / Carboxypeptidase Activity (U), PBO Treated Cotton Sprouts: 4th day of germination, PBO 1% w/v
Experimental: The extent of proteolytic activity in cotton sprouts was measured at 30′, 60′, 90′ and […] after suspension of the acetonic powder in aqueous buffer at pH 6.5 by determining the absorbance at 280 nm in a quartz cuvette, after protein precipitation with TCA and removal by centrifugation.
Each series of analysis was performed in duplicate. The comparison between the values of carboxypeptidase activity of treated and untreated samples was done using the average value of each series of analysis.
The basic idea was to “freeze” the physiologic protein hydrolysis enzymatic activity and to re-establish the process simply solubilizing the proteolytic enzymatic system in suitable buffers, which were 0.1 M phosphate pH 6.5 and 0.1 M tris-HCl pH 7.7, for evaluating both the carboxypeptidase and the endopeptidase activities according to the method described by Hile et al. 1972; Funkhouser et al. 1980.
Cotton seeds (cv. Carmela) were obtained from “Semillas Battle”, Barcelona (E).
The seeds were previously rinsed in tap water and then imbibed with aeration in distilled water over night (Funkhouser, E. A. et al., Z. Pflanzenphysiol., 1980, 100, 319-324).
The plastic boxes containing seeds were covered by a plastic film and placed in a germinator in the dark for 4 days at 30° C. as described in Hile, J. N. and Dure, L. S. J. Biol. Chem., 1972, 247: 5034-5040.
The cotton sprouts of 4 days were collected and frozen in liquid nitrogen and freeze dried (Hile et al. 1972). After this process, the material was crushed in a pestle and freed from fibrous material and settled up to obtain a pretty homogeneous meal of about 0.5 mesh.
The meals were defatted using n-hexane (1:10 w/v) at room temperature and then treated with acetone at −20° C. to remove pigments and polyphenolic compounds, in this case mainly gossypol. The powders obtained were stored in a dry box at room temperature.
The acetonic powder (30 mg) was suspended in buffer (4 ml) and incubated at 37° C. for 30, 60, 90, 120 minutes. The proteolysis was stopped adding 1 ml of 12% trichloroacetic acid. In this case, the buffer used was 0.1 M phosphate pH 6.5 (Hile et al. 1972). The control was a suspension of the same sample prepared in the same way but, in this case, it was immediately deactivated, adding 1 ml of trichloroacetic acid. The trials with treated and untreated samples were carried out at the same time.
Proteins were precipitated with trichloroacetic acid and then removed by filtration, before with Whatman paper n. 4 and then by micro-filtration (Orange Scientific Braine I'Alleud, Belgium (Ø0.2 μm)). Finally, the hydrolyzed protein samples were analyzed as clear solutions by determining the absorbance at 280 nm in a quartz cuvette.
Each series of analysis was performed twice. The comparison between the values of carboxypeptidase activity of treated and untreated samples was done using the average value of each series of analysis.

Bt toxin (Cry1Ac) = tested on: Bt toxin (Cry1Ac)
Experimental: An immunoenzymatic assay was used to determine the Bt levels at different stages of plant development. • a) Measured Bt toxin values; ordinate: Bt expressed as ppm; abscissa: days of plant culture and where different, plant tissue.
The assay was carried out on samples collected at different plant development stages, which were: 4, 35, 60, 85 days after sowing.
The ELISA Cry1Ab/Cry1Ac Plate Kit was obtained from Envirologix (Portland, Maine—USA). The assay was performed according to the Envirologix protocol with the following modifications: • 1. The cotton freeze-dried powder got from leaf or cotyledon tissues was used instead of the fresh and whole leaf tissue. • 2. The Bt toxin extraction from the cotton freeze-dried powder was done with a sample/buffer ratio of 1:25 (w/v). • 3. The extraction was made leaving the sample in the buffer for at least 4 hours at room temperature, instead of using the Envirologix Disposable Tissue Extractor. The extract was then clarified by centrifugation at 5,000×g for 5 min at room temperature.
Cotton seeds of the cv. Sicala V2i were previously rinsed in distilled water and then placed in equal number in suitable plastic boxes containing settled and sterile sand. Seeds were watered with equal volumes of distilled water and the culture boxes were then covered with a plastic film to avoid evaporation during germination, which was carried out in the dark for 4 days at 30° C. […] After 4 days, these sprouts were collected for testing, whereas the other sprouts were moved in suitable pots and located in the greenhouse at 24° C. during the day and 20° C. in the night.
Treatments were given out vaporizing the diluted formulation on the plants taking care to treat both leaves sides.
Two days after each treatment, a sample of the treated plants, and the correspondent controls, were collected and all leaves were frozen in liquid nitrogen and freeze dried. After this process, the material was powdered in a pestle and then stored in a dry box at room temperature.

[2] = Time 0 (immediately deactivated)
[3] = Growth stage 4 days (plantlets)
[4] = Growth stage 35 days (cotyledons)

SMILES: CCCCOCCOCCOCc1cc2c(cc1CCC)OCO2 [PBO, 5-[[2-(2-Butoxyethoxy)ethoxy]methyl]-6-propyl-1,3-benzodioxole]
- proteolytic activity related to carboxypeptidase in treated samples ([1]; FIG. 4, treated vs untreated cotton sprouts): lower than in the untreated ones
- absorbance at 280 nm, Exp. n° 1, PBO Treated Cotton Sprouts [1, 2]: 0.632
- absorbance at 280 nm, Exp. n° 2, PBO Treated Cotton Sprouts [1, 2]: 0.729
- absorbance at 280 nm, Mean, PBO Treated Cotton Sprouts [1, 2]: 0.68
- % difference of carboxypeptidase activity, treated vs untreated ([1]; Time 30′): 55.7%
- Δ U (carboxypeptidase activity, untreated vs PBO treated) ([1]; Time 30′): 0.083 U
- Carboxypeptidase Activity (U), PBO Treated Cotton Sprouts ([1]; Time 30′): 0.066 U
- absorbance at 280 nm, Exp. n° 1, PBO Treated Cotton Sprouts ([1]; Time 30′): 0.730
- absorbance at 280 nm, Exp. n° 2, PBO Treated Cotton Sprouts ([1]; Time 30′): 0.763
- absorbance at 280 nm, Mean, PBO Treated Cotton Sprouts ([1]; Time 30′): 0.746
- % difference of carboxypeptidase activity, treated vs untreated ([1]; Time 60′): 39.3%
- Δ U (carboxypeptidase activity, untreated vs PBO treated) ([1]; Time 60′): 0.081 U
- Carboxypeptidase Activity (U), PBO Treated Cotton Sprouts ([1]; Time 60′): 0.125 U
- absorbance at 280 nm, Exp. n° 1, PBO Treated Cotton Sprouts ([1]; Time 60′): 0.752
- absorbance at 280 nm, Exp. n° 2, PBO Treated Cotton Sprouts ([1]; Time 60′): 0.858
- absorbance at 280 nm, Mean, PBO Treated Cotton Sprouts ([1]; Time 60′): 0.805
- % difference of carboxypeptidase activity, treated vs untreated ([1]; Time 90′): 43.5%
- Δ U (carboxypeptidase activity, untreated vs PBO treated) ([1]; Time 90′): 0.087 U
- Carboxypeptidase Activity (U), PBO Treated Cotton Sprouts ([1]; Time 90′): 0.113 U
- absorbance at 280 nm, Exp. n° 1, PBO Treated Cotton Sprouts ([1]; Time 90′): 0.880
- absorbance at 280 nm, Exp. n° 2, PBO Treated Cotton Sprouts ([1]; Time 90′): 0.838
- absorbance at 280 nm, Mean, PBO Treated Cotton Sprouts ([1]; Time 90′): 0.859
- % difference of carboxypeptidase activity, treated vs untreated ([1]; Time 120′): 61.0%
- Δ U (carboxypeptidase activity, untreated vs PBO treated) ([1]; Time 120′): 0.158 U
- Carboxypeptidase Activity (U), PBO Treated Cotton Sprouts ([1]; Time 120′): 0.101 U
- absorbance at 280 nm, Exp. n° 1, PBO Treated Cotton Sprouts ([1]; Time 120′): 0.775
- absorbance at 280 nm, Exp. n° 2, PBO Treated Cotton Sprouts ([1]; Time 120′): 0.787
- absorbance at 280 nm, Mean, PBO Treated Cotton Sprouts ([1]; Time 120′): 0.781
- Bt content in PBO-treated samples vs untreated (Bt toxin (Cry1Ac); 35, 60, 85 days after planting): significant lower Bt content
- Bt content in PBO-treated samples vs untreated (Bt toxin (Cry1Ac); 4 days): no difference
- %: treated − control (Cry1Ac) (Bt toxin (Cry1Ac); [3]): −4.823%
- Cry1Ac ppm, cv V2i PBO treated (Bt toxin (Cry1Ac); [3]): 44.60 ppm
- Δ: treated − control (Cry1Ac) (Bt toxin (Cry1Ac); [3]): −2.26 ppm
- %: treated − control (Cry1Ac) (Bt toxin (Cry1Ac); [4]): 9.149%
- Cry1Ac ppm, cv V2i PBO treated (Bt toxin (Cry1Ac); [4]): 66.57 ppm
- Δ: treated − control (Cry1Ac) (Bt toxin (Cry1Ac); [4]): 5.58 ppm
- %: treated − control (Cry1Ac) (Bt toxin (Cry1Ac); Growth stage 35 days (leaves)): 38.356%
- Cry1Ac ppm, cv V2i PBO treated (Bt toxin (Cry1Ac); Growth stage 35 days (leaves)): 45.45 ppm
- Δ: treated − control (Cry1Ac) (Bt toxin (Cry1Ac); Growth stage 35 days (leaves)): 12.6 ppm
- %: treated − control (Cry1Ac) (Bt toxin (Cry1Ac); Growth stage 60 days (leaves)): 16.629%
- Cry1Ac ppm, cv V2i PBO treated (Bt toxin (Cry1Ac); Growth stage 60 days (leaves)): 31.07 ppm
- Δ: treated − control (Cry1Ac) (Bt toxin (Cry1Ac); Growth stage 60 days (leaves)): 4.43 ppm
- %: treated − control (Cry1Ac) (Bt toxin (Cry1Ac); Growth stage 85 days (leaves)): 13.236%
- Cry1Ac ppm, cv V2i PBO treated (Bt toxin (Cry1Ac); Growth stage 85 days (leaves)): 31.91 ppm
- Δ: treated − control (Cry1Ac) (Bt toxin (Cry1Ac); Growth stage 85 days (leaves)): 3.73 ppm
- amount of transgenic toxin after PBO treatment (Bt toxin (Cry1Ac); cotton transgenic for the Bt CryI protein): higher than in transgenic untreated plants
